Patent US20240109903A1, “SUBSTITUTED HETEROCYCLES FOR TREATING CANCER” (Northwestern University, priority 2022, published 2024)
Read-outs that look alike come from different tables or passages of the source.

Assays:
Assay type in all cases: cell-based
[1] = tested on: MV-4-11 acute myeloid leukemia cells; assay: CellTiter-Glo 2.0 cell viability, MV-4-11; conditions: Homo sapiens
In short: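 MV4-11 cells plated at 3,000 cells/well on pre-dispensed compounds and incubated 3 days at 37 °C, 5% CO2. Viability read as ATP-dependent luminescence with CellTiter-Glo 2.0 after 20 min at ambient temperature, followed by regression analysis.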

CCRF-CEM = assay: NCI 60 five-dose screen CCRF-CEM; conditions: Homo sapiens; for CC50: read-out: LC50 (the source's name)
K-562 = assay: NCI 60 five-dose screen K-562; conditions: Homo sapiens; for GI50 / IC50 / IC (TGI): K562; for CC50: K562, read-out: LC50 (the source's name)
A549/ATCC = assay: NCI 60 five-dose screen A549/ATCC; conditions: Homo sapiens; for CC50: read-out: LC50 (the source's name) (converted)
EKVX = assay: NCI 60 five-dose screen EKVX; conditions: Homo sapiens; for CC50: read-out: LC50 (the source's name) (converted)
HOP-92 = assay: NCI 60 five-dose screen HOP-92; conditions: Homo sapiens; for CC50: read-out: LC50 (the source's name) (converted)
NCI-H23 = assay: NCI 60 five-dose screen NCI-H23; conditions: Homo sapiens; for CC50: read-out: LC50 (the source's name) (converted)
NCI-H522 = assay: NCI 60 five-dose screen NCI-H522; conditions: Homo sapiens; for CC50: read-out: LC50 (the source's name) (converted)
HCT-116 = assay: NCI 60 five-dose screen HCT-116; conditions: Homo sapiens; for CC50: read-out: LC50 (the source's name) (converted)
SW-620 = assay: NCI 60 five-dose screen SW-620; conditions: Homo sapiens; for CC50: read-out: LC50 (the source's name) (converted)
SF-295 = assay: NCI 60 five-dose screen SF-295; conditions: Homo sapiens; for CC50: read-out: LC50 (the source's name) (converted)
MALME-3M = assay: NCI 60 five-dose screen MALME-3M; conditions: Homo sapiens, Malme-3M; for CC50: read-out: LC50 (the source's name) (converted)
M14 = assay: NCI 60 five-dose screen M14; conditions: Homo sapiens; for CC50: read-out: LC50 (the source's name) (converted)
SK-MEL-2 = assay: NCI 60 five-dose screen SK-MEL-2; conditions: Homo sapiens; for CC50: read-out: LC50 (the source's name) (converted)
IGROV1 = assay: NCI 60 five-dose screen IGROV1; conditions: Homo sapiens; for GI50 / IC50 / IC (TGI): IGROV-1; for CC50: IGROV-1, read-out: LC50 (the source's name) (converted)
OVCAR-3 = assay: NCI 60 five-dose screen OVCAR-3; conditions: Homo sapiens; for CC50: read-out: LC50 (the source's name) (converted)
OVCAR-4 = assay: NCI 60 five-dose screen OVCAR-4; conditions: Homo sapiens; for CC50: read-out: LC50 (the source's name) (converted)
A498 = assay: NCI 60 five-dose screen A498; conditions: Homo sapiens; for CC50: read-out: LC50 (the source's name) (converted)
ACHN = assay: NCI 60 five-dose screen ACHN; conditions: Homo sapiens; for CC50: read-out: LC50 (the source's name) (converted)
PC-3 = assay: NCI 60 five-dose screen PC-3; conditions: Homo sapiens; for CC50: read-out: LC50 (the source's name) (converted)
DU-145 = assay: NCI 60 five-dose screen DU-145; conditions: Homo sapiens; for CC50: read-out: LC50 (the source's name) (converted)
MCF7 = assay: NCI 60 five-dose screen MCF7; conditions: Homo sapiens; for CC50: read-out: LC50 (the source's name) (converted)
HS 578T = assay: NCI 60 five-dose screen HS 578T; conditions: Homo sapiens; for CC50: read-out: LC50 (the source's name)
T-47D = assay: NCI 60 five-dose screen T-47D; conditions: Homo sapiens, T47D; for CC50: read-out: LC50 (the source's name)
[2] = MV4-11, 72 h, MV-4-11 cells, 3 days, CellTiter-Glo 2.0, read-out: IC50 (uM) [Cell Type: MV-4-11]
[3] = MV4-11, bound stated in text, read-out: IC50 against MV-4-11 acute myeloid leukemia cells

Compound: Fc1ccc(N2CC(Cn3c(C(F)(F)F)cc4c(Cl)ncnc43)C2)c(F)c1 [NUCC-0226695]
- IC50 [1, 2]: 0.739 µM
- IC50 [1, 3]: < 2 µM
- GI50 (CCRF-CEM): 10.5 µM
- IC50 (CCRF-CEM): 41.7 µM
- IC (TGI) (CCRF-CEM): 100 µM
- CC50 (CCRF-CEM): ≥ 100 µM
- GI50 (K-562): 2.34 µM
- IC50 (K-562): 3.09 µM
- IC (TGI) (K-562): 7.08 µM
- CC50 (K-562): ≥ 100 µM
- GI50 (A549/ATCC): 17.4 µM
- IC50 (A549/ATCC): 29.5 µM
- IC (TGI) (A549/ATCC): 35.5 µM
- CC50 (A549/ATCC): 74.1 µM
- GI50 (EKVX): 6.61 µM
- IC50 (EKVX): 16.6 µM
- IC (TGI) (EKVX): 20 µM
- CC50 (EKVX): 46.8 µM
- GI50 (HOP-92): 11 µM
- IC50 (HOP-92): 26.9 µM
- IC (TGI) (HOP-92): 25.7 µM
- CC50 (HOP-92): 58.9 µM
- GI50 (NCI-H23): 2.63 µM
- IC50 (NCI-H23): 4.9 µM
- IC (TGI) (NCI-H23): 8.32 µM
- CC50 (NCI-H23): 30.9 µM
- GI50 (NCI-H522): 1.82 µM
- IC50 (NCI-H522): 3.47 µM
- IC (TGI) (NCI-H522): 3.98 µM
- CC50 (NCI-H522): 8.71 µM
- GI50 (HCT-116): 1.91 µM
- IC50 (HCT-116): 3.16 µM
- IC (TGI) (HCT-116): 3.89 µM
- CC50 (HCT-116): 7.94 µM
- GI50 (SW-620): 1.91 µM
- IC50 (SW-620): 3.16 µM
- IC (TGI) (SW-620): 3.8 µM
- CC50 (SW-620): 7.76 µM
- GI50 (SF-295): 11.5 µM
- IC50 (SF-295): 20 µM
- IC (TGI) (SF-295): 24.5 µM
- CC50 (SF-295): 52.5 µM
- GI50 (MALME-3M): 12.6 µM
- IC50 (MALME-3M): 25.7 µM
- IC (TGI) (MALME-3M): 25.1 µM
- CC50 (MALME-3M): 50.1 µM
- GI50 (M14): 2.95 µM
- IC50 (M14): 4.37 µM
- IC (TGI) (M14): 10.7 µM
- CC50 (M14): 45.7 µM
- GI50 (SK-MEL-2): 15.8 µM
- IC50 (SK-MEL-2): 31.6 µM
- IC (TGI) (SK-MEL-2): 30.9 µM
- CC50 (SK-MEL-2): 61.7 µM
- GI50 (IGROV1): 1.86 µM
- IC50 (IGROV1): 3.24 µM
- IC (TGI) (IGROV1): 3.55 µM
- CC50 (IGROV1): 6.76 µM
- GI50 (OVCAR-3): 2.57 µM
- IC50 (OVCAR-3): 4.9 µM
- IC (TGI) (OVCAR-3): 6.46 µM
- CC50 (OVCAR-3): 22.9 µM
- GI50 (OVCAR-4): 12.9 µM
- IC50 (OVCAR-4): 24.5 µM
- IC (TGI) (OVCAR-4): 26.9 µM
- CC50 (OVCAR-4): 56.2 µM
- GI50 (A498): 23.4 µM
- IC50 (A498): 100 µM
- IC (TGI) (A498): 74.1 µM
- CC50 (A498): ≥ 100 µM
- GI50 (ACHN): 12.9 µM
- IC50 (ACHN): 21.9 µM
- IC (TGI) (ACHN): 27.5 µM
- CC50 (ACHN): 58.9 µM
- GI50 (PC-3): 3.09 µM
- IC50 (PC-3): 4.27 µM
- IC (TGI) (PC-3): 11 µM
- CC50 (PC-3): 58.9 µM
- GI50 (DU-145): 12.6 µM
- IC50 (DU-145): 21.9 µM
- IC (TGI) (DU-145): 25.7 µM
- CC50 (DU-145): 52.5 µM
- GI50 (MCF7): 8.13 µM
- IC50 (MCF7): 12.9 µM
- IC (TGI) (MCF7): 23.4 µM
- CC50 (MCF7): 60.3 µM
- GI50 (HS 578T): 7.08 µM
- IC50 (HS 578T): 77.6 µM
- IC (TGI) (HS 578T): 41.7 µM
- CC50 (HS 578T): ≥ 100 µM
- GI50 (T-47D): 13.8 µM
- IC50 (T-47D): 43.7 µM
- IC (TGI) (T-47D): 67.6 µM
- CC50 (T-47D): ≥ 100 µM

Compound: O=c1ccc(Cn2c(C(F)(F)F)cc3c(Cl)ncnc32)c[nH]1 [NUCC-0226698]
- IC50 [1, 2]: 1.26 µM
- IC50 [1, 3]: < 2 µM
- GI50 (CCRF-CEM): 4.37 µM
- IC50 (CCRF-CEM): 6.61 µM
- IC (TGI) (CCRF-CEM): 100 µM
- CC50 (CCRF-CEM): ≥ 100 µM
- GI50 (K-562): 2.82 µM
- IC50 (K-562): 3.39 µM
- IC (TGI) (K-562): 100 µM
- CC50 (K-562): ≥ 100 µM
- GI50 (A549/ATCC): 64.6 µM
- IC50 (A549/ATCC): 100 µM
- IC (TGI) (A549/ATCC): 100 µM
- CC50 (A549/ATCC): ≥ 100 µM
- GI50 (EKVX): 14.1 µM
- IC50 (EKVX): 30.9 µM
- IC (TGI) (EKVX): 36.3 µM
- CC50 (EKVX): 91.2 µM
- GI50 (HOP-92): 22.9 µM
- IC50 (HOP-92): 100 µM
- IC (TGI) (HOP-92): 100 µM
- CC50 (HOP-92): ≥ 100 µM
- GI50 (NCI-H23): 3.98 µM
- IC50 (NCI-H23): 8.71 µM
- IC (TGI) (NCI-H23): 18.6 µM
- CC50 (NCI-H23): 72.4 µM
- GI50 (NCI-H522): 2.04 µM
- IC50 (NCI-H522): 3.98 µM
- IC (TGI) (NCI-H522): 4.9 µM
- CC50 (NCI-H522): ≥ 100 µM
- GI50 (HCT-116): 3.55 µM
- IC50 (HCT-116): 4.17 µM
- IC (TGI) (HCT-116): 29.5 µM
- CC50 (HCT-116): ≥ 100 µM
- GI50 (SW-620): 5.5 µM
- IC50 (SW-620): 7.08 µM
- IC (TGI) (SW-620): 26.3 µM
- CC50 (SW-620): ≥ 100 µM
- GI50 (SF-295): 28.2 µM
- IC50 (SF-295): 50.1 µM
- IC (TGI) (SF-295): 100 µM
- CC50 (SF-295): ≥ 100 µM
- GI50 (MALME-3M): 15.8 µM
- IC50 (MALME-3M): 36.3 µM
- IC (TGI) (MALME-3M): 34.7 µM
- CC50 (MALME-3M): 77.6 µM
- GI50 (M14): 4.07 µM
- IC50 (M14): 6.92 µM
- IC (TGI) (M14): 21.9 µM
- CC50 (M14): ≥ 100 µM
- GI50 (SK-MEL-2): 17 µM
- IC50 (SK-MEL-2): 33.1 µM
- IC (TGI) (SK-MEL-2): 32.4 µM
- CC50 (SK-MEL-2): 63.1 µM
- GI50 (IGROV1): 2.29 µM
- IC50 (IGROV1): 3.72 µM
- IC (TGI) (IGROV1): 6.03 µM
- CC50 (IGROV1): 26.3 µM
- GI50 (OVCAR-3): 14.8 µM
- IC50 (OVCAR-3): 28.8 µM
- IC (TGI) (OVCAR-3): 33.1 µM
- CC50 (OVCAR-3): 72.4 µM
- GI50 (OVCAR-4): 17.8 µM
- IC50 (OVCAR-4): 36.3 µM
- IC (TGI) (OVCAR-4): 44.7 µM
- CC50 (OVCAR-4): ≥ 100 µM
- GI50 (A498): ≥ 100 µM
- IC50 (A498): 100 µM
- IC (TGI) (A498): 100 µM
- CC50 (A498): ≥ 100 µM
- GI50 (ACHN): 22.4 µM
- IC50 (ACHN): 33.9 µM
- IC (TGI) (ACHN): 100 µM
- CC50 (ACHN): ≥ 100 µM
- GI50 (PC-3): 17 µM
- IC50 (PC-3): 28.2 µM
- IC (TGI) (PC-3): 56.2 µM
- CC50 (PC-3): ≥ 100 µM
- GI50 (DU-145): 38.9 µM
- IC50 (DU-145): 61.7 µM
- IC (TGI) (DU-145): 100 µM
- CC50 (DU-145): ≥ 100 µM
- GI50 (MCF7): 20.9 µM
- IC50 (MCF7): 32.4 µM
- IC (TGI) (MCF7): 67.6 µM
- CC50 (MCF7): ≥ 100 µM
- GI50 (HS 578T): 8.71 µM
- IC50 (HS 578T): 100 µM
- IC (TGI) (HS 578T): 50.1 µM
- CC50 (HS 578T): ≥ 100 µM
- GI50 (T-47D): 30.2 µM
- IC50 (T-47D): 79.4 µM
- IC (TGI) (T-47D): 100 µM
- CC50 (T-47D): ≥ 100 µM
